Measured values from patent US20230271969A1, “NITROGEN-CONTAINING FUSED RING DERIVATIVE INHIBITOR, PREPARATION METHOD THEREFOR AND USE THEREOF” (Shanghai Hansoh Biomedical Co., Ltd., priority 2020, published 2023).

System: Senktide-induced bilateral ovariectomy rats
Assay: Tail skin temperature in a Senktide-induced bilateral ovariectomy rat model
Assay type: in vivo
Conditions: OVX SD rats, oral 30 mg/kg, 30 min before s.c. Senktide, tail skin temperature over 75 min
Excerpt: Pharmacodynamic Study of the Test Compounds on Tail Skin Temperature in a Senktide-Induced Bilateral Ovariectomy Rat Model
To evaluate the effect of the test compounds on tail skin temperature in Senktide-induced bilateral ovariectomy rats.
2.3. Experimental Animals • Ten-Week-old female bilateral ovariectomy SD rats were purchased from Beijing Vital River Laboratory Animal Technology Co., Ltd. The animals were housed in a SPF grade animal facility with 5 SD rats per cage. The cages, bedding, feed and water were disinfected at high temperatures before use. All animals had free access to food and water.
Ten-week-old female SD rats were subjected to bilateral ovariectomy and recovered for two weeks, and then randomly divided into negative control group, model group and drug administration group (8 rats per group), based on body weight. The probe was attached to the dorsal surface of the rat tail with medical tape, 1-2 cm away from the tailhead of the rat.
The vehicle was administered orally to the negative control group and the model group, and different test compounds were administered orally to each drug administration group at a dose of 30 mg/kg and a volume of 10 mL/kg.
Thirty minutes after the oral administration of the vehicle or test compound, the negative control group was injected subcutaneously with normal saline (at a volume of 5 mL/kg); the model group and each drug administration group were injected subcutaneously with 0.2 mg/mL of Senktide (at a volume of 5 mL/kg) to induce the hot flashes-like symptom.
The change in tail skin temperature (ΔTST) at each time point relative to time point 0 was calculated, the ΔTST-time curve of the change in tail skin temperature was plotted, and the area under curve (AUCΔTST) was calculated. ΔTST=TSTn−TST0, TST0 is the tail skin temperature at 0 minute before the subcutaneous injection of normal saline or Senktide; TSTn is the tail skin temperature at the n minute after the subcutaneous injection.
AUCΔTST=Σ(ΔTSTn+ΔTSTn+5)*5/2

Work on `[2H]c1cc(C(=O)N2CCn3c(-c4nc(Cl)ns4)nnc3[C@H]2C)ccc1F` [Example 56, (R)-(3-(3-Chloro-1,2,4-thiadiazol-5-yl)-8-methyl-5,6-dihydro-[1,2,4]triazolo[4,3-a]pyrazin-7(8H)-yl)(4-fluorophenyl-3-d)methanone] yielded an AUCΔTST of 53.8 ± 19.8 °C · min.
